Measured values taken from ChEMBL document CHEMBL2396580, “Spongiacidin C, a pyrrole alkaloid from the marine sponge Stylissa massa, functions as a USP7 inhibitor” (Bioorg Med Chem Lett, 2013).
Activity calls are given as the source filed them. The rule behind the calls is not given here.

Legend:
[1] = biological target: T1, Ubiquitin carboxyl-terminal hydrolase 7 (Homo sapiens, UniProt Q93009); assay: Inhibition of USP7 (unknown origin) using ubiquitin-EKL as substrate
Target sequence in this assay (Q93009 whole entry): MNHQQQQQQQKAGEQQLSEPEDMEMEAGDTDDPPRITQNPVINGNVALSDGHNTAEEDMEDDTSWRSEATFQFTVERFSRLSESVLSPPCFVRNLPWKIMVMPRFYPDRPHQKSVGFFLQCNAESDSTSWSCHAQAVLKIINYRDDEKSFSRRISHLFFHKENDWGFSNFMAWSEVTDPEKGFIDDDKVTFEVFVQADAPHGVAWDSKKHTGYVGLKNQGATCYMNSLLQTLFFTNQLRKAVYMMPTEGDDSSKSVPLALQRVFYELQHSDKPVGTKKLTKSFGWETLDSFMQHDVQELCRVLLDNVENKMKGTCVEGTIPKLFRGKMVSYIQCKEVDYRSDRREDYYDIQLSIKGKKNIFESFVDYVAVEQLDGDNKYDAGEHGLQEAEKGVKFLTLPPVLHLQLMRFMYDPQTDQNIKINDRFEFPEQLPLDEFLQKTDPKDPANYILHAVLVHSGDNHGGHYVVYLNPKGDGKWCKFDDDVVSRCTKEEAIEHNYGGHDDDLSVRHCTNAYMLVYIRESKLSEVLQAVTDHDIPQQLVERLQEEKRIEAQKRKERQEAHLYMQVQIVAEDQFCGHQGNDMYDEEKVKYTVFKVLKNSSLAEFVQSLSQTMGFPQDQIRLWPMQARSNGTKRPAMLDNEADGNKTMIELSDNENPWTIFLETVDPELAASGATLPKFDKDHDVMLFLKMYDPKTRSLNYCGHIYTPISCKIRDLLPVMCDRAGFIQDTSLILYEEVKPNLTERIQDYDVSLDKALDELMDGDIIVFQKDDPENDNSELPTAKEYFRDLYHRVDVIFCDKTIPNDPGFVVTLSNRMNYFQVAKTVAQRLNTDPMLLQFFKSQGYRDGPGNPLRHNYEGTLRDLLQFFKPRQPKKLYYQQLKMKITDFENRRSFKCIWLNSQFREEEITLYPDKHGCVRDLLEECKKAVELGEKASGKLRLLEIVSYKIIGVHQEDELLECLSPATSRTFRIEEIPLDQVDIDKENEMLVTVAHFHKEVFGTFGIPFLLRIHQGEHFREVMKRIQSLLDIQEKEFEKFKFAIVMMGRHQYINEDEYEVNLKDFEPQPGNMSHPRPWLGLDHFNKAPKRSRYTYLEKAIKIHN

[2] = biological target: T1, Ubiquitin carboxyl-terminal hydrolase 7; assay: Inhibition of USP7 (unknown origin) using ubiquitin-EKL as substrate at 20 uM
Target sequence in this assay (Q93009 whole entry, looked up): as the sequence (Q93009 whole entry) above

[3] = biological target: T2, Ubiquitin carboxyl-terminal hydrolase 8 (Homo sapiens, UniProt P40818); assay: Inhibition of core catalytic domain of USP8 (unknown origin) using ubiquitin-Rh110 as substrate
T2 sequence (P40818 whole entry): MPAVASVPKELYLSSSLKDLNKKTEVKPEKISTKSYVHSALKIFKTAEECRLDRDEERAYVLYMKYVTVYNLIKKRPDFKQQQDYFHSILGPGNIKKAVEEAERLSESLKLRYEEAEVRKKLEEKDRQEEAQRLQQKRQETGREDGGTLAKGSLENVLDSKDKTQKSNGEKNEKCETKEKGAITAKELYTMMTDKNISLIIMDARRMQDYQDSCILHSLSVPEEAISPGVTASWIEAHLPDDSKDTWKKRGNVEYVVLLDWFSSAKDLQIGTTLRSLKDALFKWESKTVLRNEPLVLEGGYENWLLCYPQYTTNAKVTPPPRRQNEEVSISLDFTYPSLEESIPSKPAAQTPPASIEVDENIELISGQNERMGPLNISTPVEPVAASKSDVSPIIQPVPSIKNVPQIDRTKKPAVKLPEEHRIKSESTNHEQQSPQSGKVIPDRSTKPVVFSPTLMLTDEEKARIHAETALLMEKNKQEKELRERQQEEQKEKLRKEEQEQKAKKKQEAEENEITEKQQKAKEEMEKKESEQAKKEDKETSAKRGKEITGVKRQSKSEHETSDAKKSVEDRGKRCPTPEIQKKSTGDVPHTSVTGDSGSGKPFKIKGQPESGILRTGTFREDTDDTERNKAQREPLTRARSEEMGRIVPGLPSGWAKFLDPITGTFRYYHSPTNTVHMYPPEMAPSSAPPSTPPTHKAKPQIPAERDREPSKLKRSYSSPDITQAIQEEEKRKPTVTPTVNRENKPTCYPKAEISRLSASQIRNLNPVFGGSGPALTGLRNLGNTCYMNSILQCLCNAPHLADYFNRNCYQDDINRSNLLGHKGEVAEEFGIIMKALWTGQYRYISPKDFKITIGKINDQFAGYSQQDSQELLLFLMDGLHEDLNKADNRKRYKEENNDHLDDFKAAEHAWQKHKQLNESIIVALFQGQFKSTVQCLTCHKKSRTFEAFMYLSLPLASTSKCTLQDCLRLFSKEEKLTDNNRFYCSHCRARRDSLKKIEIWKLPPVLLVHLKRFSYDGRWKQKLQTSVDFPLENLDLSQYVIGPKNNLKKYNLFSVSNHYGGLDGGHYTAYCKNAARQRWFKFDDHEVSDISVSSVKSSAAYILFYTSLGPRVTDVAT

[4] = biological target: T3, Sentrin-specific protease 1 (Homo sapiens, UniProt Q9P0U3); assay: Inhibition of core catalytic domain of SENP1 (unknown origin) using SUMO3-EKL as substrate
T3 sequence (Q9P0U3 whole entry): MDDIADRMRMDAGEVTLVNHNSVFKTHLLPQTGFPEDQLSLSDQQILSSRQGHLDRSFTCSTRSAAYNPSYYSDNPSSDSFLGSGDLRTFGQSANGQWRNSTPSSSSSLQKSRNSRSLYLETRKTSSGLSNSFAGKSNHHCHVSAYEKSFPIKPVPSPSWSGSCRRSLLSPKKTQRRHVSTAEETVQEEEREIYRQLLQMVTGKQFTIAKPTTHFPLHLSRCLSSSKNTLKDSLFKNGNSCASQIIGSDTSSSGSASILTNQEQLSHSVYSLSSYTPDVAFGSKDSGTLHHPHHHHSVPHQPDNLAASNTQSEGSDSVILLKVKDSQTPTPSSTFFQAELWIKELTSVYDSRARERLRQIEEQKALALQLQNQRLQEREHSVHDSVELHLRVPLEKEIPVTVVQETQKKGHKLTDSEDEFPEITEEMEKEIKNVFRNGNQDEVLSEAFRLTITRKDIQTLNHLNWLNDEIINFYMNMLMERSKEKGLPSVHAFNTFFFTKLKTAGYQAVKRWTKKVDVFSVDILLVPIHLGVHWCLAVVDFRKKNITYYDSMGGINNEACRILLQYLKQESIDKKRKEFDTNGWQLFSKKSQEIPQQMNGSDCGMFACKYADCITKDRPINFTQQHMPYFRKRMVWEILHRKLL

[5] = biological target: T4, Ubiquitin carboxyl-terminal hydrolase 2 (Homo sapiens, UniProt O75604); assay: Inhibition of core catalytic domain of USP2 (unknown origin) using diubiquitin IQF K4804 as substrate
T4 sequence (O75604 whole entry): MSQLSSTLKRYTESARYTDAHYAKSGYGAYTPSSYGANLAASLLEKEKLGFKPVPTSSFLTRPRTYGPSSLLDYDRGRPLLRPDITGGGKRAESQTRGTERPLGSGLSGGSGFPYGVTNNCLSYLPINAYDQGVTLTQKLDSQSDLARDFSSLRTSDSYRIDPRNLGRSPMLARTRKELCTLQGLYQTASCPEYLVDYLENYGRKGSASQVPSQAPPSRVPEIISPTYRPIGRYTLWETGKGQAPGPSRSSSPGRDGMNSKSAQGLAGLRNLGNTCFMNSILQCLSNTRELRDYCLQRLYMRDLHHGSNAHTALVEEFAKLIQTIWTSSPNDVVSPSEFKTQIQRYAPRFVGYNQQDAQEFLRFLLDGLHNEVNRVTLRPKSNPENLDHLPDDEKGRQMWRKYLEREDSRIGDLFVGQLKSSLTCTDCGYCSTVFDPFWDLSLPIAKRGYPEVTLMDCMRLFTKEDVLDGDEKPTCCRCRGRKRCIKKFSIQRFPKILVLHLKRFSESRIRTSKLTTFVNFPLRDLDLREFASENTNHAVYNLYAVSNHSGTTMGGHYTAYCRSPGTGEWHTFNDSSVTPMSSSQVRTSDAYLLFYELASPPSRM

HCT-116 = assay: Antiproliferative activity against p53 wild type human HCT116 cells expressing USP7 assessed as growth inhibition up to 50 uM; assay type: functional, cell-based
[6] = biological target: T5, Ubiquitin carboxyl-terminal hydrolase 21 (Homo sapiens, UniProt Q9UK80); assay: Inhibition of core catalytic domain of USP21 (unknown origin) using ubiquitin-Rh110 as substrate
T5 sequence (Q9UK80 whole entry): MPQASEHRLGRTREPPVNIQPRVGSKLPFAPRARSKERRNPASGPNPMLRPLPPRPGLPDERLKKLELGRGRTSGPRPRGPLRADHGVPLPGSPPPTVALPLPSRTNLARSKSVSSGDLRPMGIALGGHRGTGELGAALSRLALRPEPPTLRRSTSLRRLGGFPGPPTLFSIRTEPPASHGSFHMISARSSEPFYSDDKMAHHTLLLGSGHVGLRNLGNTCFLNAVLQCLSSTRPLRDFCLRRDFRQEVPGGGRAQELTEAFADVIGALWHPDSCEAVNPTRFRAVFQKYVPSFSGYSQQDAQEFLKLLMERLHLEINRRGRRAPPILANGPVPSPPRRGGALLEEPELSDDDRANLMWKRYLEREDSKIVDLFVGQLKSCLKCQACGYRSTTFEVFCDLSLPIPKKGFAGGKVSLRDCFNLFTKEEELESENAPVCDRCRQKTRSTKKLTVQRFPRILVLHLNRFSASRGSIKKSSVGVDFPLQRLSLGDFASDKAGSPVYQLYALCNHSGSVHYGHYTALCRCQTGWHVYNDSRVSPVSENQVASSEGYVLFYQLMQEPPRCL

IC50 [1] [µM]	inhibition [2] [%]	SMILES	also measured
0.42		N#Cc1nc2c(nc1C#N)-c1ccc(Cl)cc1C2=O	
22.6		CCN(CCCNC(=O)c1ccc2nc3c(c(Cl)c2c1)CCCC3)Cc1ccccc1	
	20	NC1=N/C(=C2/CCNC(=O)c3[nH]ccc32)C(=O)N1	
	20	NC1=NC(=O)/C(=C2\CCNC(=O)c3[nH]c(Br)cc32)N1	
3.8		O=C1NC(=O)/C(=C2\CCNC(=O)c3[nH]ccc32)N1 [SPONGIACIDIN C]	IC50 [3]: > 31.6 µM; IC50 [4]: > 31.6 µM; IC50 [5]: > 31.6 µM; growth inhibition (GI) (HCT-116): inactive; IC50 [6]: 16.6 µM

SMILES	IC50 [1] [µM]	inhibition [2] [%]	also measured
CN(CCCNC(=O)c1ccc2nc3c(c(Cl)c2c1)CCCC3)Cc1ccccc1	28.1		
